Our source for the endothelial cell apoptosis values is patent US20120203161A1, “DEUTERATED WATER AND RIBOFLAVIN SOLUTION FOR EXTENDING SINGLET OXYGEN LIFETIMES IN TREATMENT OF OCULAR TISSUE AND METHOD OF USE” (SEROS MEDICAL, LLC, priority 2009, published 2012).

The subject of the series is endothelial cell.

For `[2H]O[2H]` [deuterated water, deuterium oxide], the endothelial cell apoptosis entry is reported as “does not induce endothelial cell apoptosis”.
